From patent US11351179B1, “Pharmaceutical compositions and methods for treatment of psychiatric disorders” (LA PharmaTech Inc., priority 2021, dated 2022)

How the values were obtained:
[1] = system: MDD and panic disorder; test: Clinical case: patient with MDD and panic disorder treated orally once daily; format: in vivo, human; settings: each drug given for 2 months before the composition
Text: A patient had MDD and panic disorder. […] Because azelastine is approved for the treatment of allergic rhinitis and asthma, and the combination composition of azelastine and folic acid had never been expected to be used to treat patients with depression or anxiety, this dramatic clinical outcome which included a fast reduction of symptoms was unexpected. […] This composition with two mechanisms of action of anti-inflammation would provide a new solution for treating psychiatric diseases which are incurable by other options, such traditional SSRIs, NSRIs, benzodiazepines, and the like alone.

[2] = system: mild chronic depression and anxiety induced sleep disorder; test: Clinical case: patient with mild chronic depression and anxiety induced sleep disorder treated once daily; format: in vivo, human; settings: citalopram and lorazepam together for 3 months before the composition
Protocol: A patient was diagnosed with mild chronic depression and anxiety induced sleep disorder and was treated with citalopram and lorazepam for 3 months. […] Then they were treated with a composition of folic acid (0.19 mg) and azelastine (2 mg) once daily. […] The inventors believe the hypothesis as explained in Example 1 above is applicable here as well. In this case, the composition of two mechanisms of action provided a new solution for treating their chronic depression and insomnia which could not be treated with other options, such traditional SSRIs, NSRIs, benzodiazepines, and the like alone.

SMILES | clinical improvement on prior treatment [1] | improvement of symptoms on prior treatment [2]
O=C1CC2(CCCC2)CC(=O)N1CCCCN1CCN(c2ncccn2)CC1 [buspirone] | no significant clinical improvement | –
O=C1Nc2ccc(Cl)cc2C(c2ccccc2Cl)=NC1O (stereo not drawn) [lorazepam] | – | never improved to the level of their satisfaction
CN[C@H]1CC[C@@H](c2ccc(Cl)c(Cl)c2)c2ccccc21 [sertraline] | no significant clinical improvement | –
